Reference: ChEMBL document CHEMBL1201862, “PubChem BioAssay data set” (2004)
pIC50: −log10 of the molar value. The source made the active and inactive calls.

Assays:
[1] = HepG2 cell cytotoxicity, dose response, cytotoxicity control for non-replicating M. tuberculosis project (AID 489018); assay type: functional; conditions: Mycobacterium tuberculosis
[2] = reduction of Shn3 3'UTR-driven luciferase in osteoblasts – cell-based, Clone20 osteoblasts, firefly luciferase, cherry-picked, dose response (AID 624132); assay type: functional;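 note: firefly luciferase luminescence from reporter carrying the Shn3 3'UTR in osteoblasts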
BJ = test: growth inhibition of engineered Ras-driven BJ cells – cell-based, alamar blue fluorescence, cherrypicked samples, dose response (AID 2631); assay type: functional; conditions: Homo sapiens;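 note: confirmatory dose-response assay in RAS-dependent BJ fibroblasts engineered with TERT, LT and ST, with cytotoxicity read by fluorescence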
[3] = target: T1, Kappa-type opioid receptor (Homo sapiens, UniProt P41145); assay type: functional
T1 sequence (P41145 whole entry): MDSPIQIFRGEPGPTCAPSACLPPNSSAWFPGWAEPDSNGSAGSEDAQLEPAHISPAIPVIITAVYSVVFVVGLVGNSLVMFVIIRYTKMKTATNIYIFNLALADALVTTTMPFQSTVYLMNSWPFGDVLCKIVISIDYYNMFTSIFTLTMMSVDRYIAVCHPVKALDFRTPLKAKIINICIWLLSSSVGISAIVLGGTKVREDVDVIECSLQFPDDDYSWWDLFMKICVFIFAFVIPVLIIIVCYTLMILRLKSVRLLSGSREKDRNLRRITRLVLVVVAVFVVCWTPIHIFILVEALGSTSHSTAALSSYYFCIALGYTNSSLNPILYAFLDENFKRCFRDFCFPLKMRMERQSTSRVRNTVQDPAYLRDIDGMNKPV

Beta-galactosidase = Beta-galactosidase (Escherichia coli, UniProt Q8VNN2); assay type: functional
[4] = target: T2, Replicative DNA helicase DnaB (Mycobacterium tuberculosis, UniProt P9WMR3); test: DnaB intein splicing inhibitors, dose response, biochemical, cell-free fluorescence (AID 449749); assay type: functional
T2 sequence (P9WMR3 whole entry): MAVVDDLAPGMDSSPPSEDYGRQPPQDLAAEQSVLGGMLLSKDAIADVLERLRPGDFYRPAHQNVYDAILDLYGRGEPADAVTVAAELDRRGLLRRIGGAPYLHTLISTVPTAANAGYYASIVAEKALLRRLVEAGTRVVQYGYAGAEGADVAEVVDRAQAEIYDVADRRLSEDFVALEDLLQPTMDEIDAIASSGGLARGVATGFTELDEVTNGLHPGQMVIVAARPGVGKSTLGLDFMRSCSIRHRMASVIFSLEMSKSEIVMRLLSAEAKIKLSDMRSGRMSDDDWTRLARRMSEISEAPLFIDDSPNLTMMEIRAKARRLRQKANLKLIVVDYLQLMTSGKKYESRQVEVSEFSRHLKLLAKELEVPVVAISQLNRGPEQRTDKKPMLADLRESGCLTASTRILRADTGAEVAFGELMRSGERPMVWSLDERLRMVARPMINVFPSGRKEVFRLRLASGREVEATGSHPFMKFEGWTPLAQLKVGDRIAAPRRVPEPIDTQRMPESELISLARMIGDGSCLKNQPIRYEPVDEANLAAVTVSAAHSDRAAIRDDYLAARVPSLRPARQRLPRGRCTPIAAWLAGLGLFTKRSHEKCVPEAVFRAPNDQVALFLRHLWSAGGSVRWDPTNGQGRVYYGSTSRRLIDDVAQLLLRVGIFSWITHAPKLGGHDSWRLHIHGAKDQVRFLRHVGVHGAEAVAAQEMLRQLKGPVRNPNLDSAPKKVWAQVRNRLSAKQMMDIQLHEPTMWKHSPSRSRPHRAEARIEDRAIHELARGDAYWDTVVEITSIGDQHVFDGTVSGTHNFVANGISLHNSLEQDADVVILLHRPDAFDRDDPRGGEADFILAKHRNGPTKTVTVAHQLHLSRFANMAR

[5] = target: Bifunctional protein GlmU (Mycobacterium tuberculosis, UniProt P9WMN3); test: Inhibitors of Mycobacterial Glucosamine-1-phosphate acetyl transferase (GlmU). Secondary screen.; set-up: species or system Mycobacterium tuberculosis H37Rv
cells = assay type: functional
[6] = target: T3, Delta-type opioid receptor (Homo sapiens, UniProt P41143); test: HTS Image-Based Screen for Antagonists of the DOR Receptor. [Related pubchem assays (depositor defined):AID1777, AID1785, AID1786, AID2133]; assay type: functional
T3 sequence (P41143 whole entry): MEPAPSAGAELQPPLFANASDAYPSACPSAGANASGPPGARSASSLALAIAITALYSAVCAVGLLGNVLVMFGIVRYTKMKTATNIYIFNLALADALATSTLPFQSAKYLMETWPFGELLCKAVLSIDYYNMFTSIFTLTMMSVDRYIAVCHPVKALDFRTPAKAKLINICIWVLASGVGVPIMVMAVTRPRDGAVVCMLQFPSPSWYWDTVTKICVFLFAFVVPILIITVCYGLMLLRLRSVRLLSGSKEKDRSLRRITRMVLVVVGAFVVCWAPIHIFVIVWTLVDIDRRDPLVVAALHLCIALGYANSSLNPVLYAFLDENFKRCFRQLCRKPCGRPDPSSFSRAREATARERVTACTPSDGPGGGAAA

Beta Lactamase = Beta Lactamase (Pseudomonas aeruginosa, UniProt Q932Y6); test: BLA reporter interference, concentration series – BLA reporter cells, FRET fluorescence, artefact control for TLR9-MyD88 binding inhibitor project, dose response (AID 588341); assay type: cell-based;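 note: cell based assay in CHO-K1 cells stably expressing beta-lactamase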
Fatty acid synthase [7] = target: T4, Fatty acid synthase (Homo sapiens, UniProt P49327); test: inhibition of human FAS-TE enzyme activity – biochemical, kinetic fluorescence intensity, dose response (AID 624326); assay type: functional;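 note: rate of fluorescence rise from hydrolysis of a fluorogenic O-methyl fluorescein ester substrate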
T4 sequence (P49327 whole entry, the tested form may be a part): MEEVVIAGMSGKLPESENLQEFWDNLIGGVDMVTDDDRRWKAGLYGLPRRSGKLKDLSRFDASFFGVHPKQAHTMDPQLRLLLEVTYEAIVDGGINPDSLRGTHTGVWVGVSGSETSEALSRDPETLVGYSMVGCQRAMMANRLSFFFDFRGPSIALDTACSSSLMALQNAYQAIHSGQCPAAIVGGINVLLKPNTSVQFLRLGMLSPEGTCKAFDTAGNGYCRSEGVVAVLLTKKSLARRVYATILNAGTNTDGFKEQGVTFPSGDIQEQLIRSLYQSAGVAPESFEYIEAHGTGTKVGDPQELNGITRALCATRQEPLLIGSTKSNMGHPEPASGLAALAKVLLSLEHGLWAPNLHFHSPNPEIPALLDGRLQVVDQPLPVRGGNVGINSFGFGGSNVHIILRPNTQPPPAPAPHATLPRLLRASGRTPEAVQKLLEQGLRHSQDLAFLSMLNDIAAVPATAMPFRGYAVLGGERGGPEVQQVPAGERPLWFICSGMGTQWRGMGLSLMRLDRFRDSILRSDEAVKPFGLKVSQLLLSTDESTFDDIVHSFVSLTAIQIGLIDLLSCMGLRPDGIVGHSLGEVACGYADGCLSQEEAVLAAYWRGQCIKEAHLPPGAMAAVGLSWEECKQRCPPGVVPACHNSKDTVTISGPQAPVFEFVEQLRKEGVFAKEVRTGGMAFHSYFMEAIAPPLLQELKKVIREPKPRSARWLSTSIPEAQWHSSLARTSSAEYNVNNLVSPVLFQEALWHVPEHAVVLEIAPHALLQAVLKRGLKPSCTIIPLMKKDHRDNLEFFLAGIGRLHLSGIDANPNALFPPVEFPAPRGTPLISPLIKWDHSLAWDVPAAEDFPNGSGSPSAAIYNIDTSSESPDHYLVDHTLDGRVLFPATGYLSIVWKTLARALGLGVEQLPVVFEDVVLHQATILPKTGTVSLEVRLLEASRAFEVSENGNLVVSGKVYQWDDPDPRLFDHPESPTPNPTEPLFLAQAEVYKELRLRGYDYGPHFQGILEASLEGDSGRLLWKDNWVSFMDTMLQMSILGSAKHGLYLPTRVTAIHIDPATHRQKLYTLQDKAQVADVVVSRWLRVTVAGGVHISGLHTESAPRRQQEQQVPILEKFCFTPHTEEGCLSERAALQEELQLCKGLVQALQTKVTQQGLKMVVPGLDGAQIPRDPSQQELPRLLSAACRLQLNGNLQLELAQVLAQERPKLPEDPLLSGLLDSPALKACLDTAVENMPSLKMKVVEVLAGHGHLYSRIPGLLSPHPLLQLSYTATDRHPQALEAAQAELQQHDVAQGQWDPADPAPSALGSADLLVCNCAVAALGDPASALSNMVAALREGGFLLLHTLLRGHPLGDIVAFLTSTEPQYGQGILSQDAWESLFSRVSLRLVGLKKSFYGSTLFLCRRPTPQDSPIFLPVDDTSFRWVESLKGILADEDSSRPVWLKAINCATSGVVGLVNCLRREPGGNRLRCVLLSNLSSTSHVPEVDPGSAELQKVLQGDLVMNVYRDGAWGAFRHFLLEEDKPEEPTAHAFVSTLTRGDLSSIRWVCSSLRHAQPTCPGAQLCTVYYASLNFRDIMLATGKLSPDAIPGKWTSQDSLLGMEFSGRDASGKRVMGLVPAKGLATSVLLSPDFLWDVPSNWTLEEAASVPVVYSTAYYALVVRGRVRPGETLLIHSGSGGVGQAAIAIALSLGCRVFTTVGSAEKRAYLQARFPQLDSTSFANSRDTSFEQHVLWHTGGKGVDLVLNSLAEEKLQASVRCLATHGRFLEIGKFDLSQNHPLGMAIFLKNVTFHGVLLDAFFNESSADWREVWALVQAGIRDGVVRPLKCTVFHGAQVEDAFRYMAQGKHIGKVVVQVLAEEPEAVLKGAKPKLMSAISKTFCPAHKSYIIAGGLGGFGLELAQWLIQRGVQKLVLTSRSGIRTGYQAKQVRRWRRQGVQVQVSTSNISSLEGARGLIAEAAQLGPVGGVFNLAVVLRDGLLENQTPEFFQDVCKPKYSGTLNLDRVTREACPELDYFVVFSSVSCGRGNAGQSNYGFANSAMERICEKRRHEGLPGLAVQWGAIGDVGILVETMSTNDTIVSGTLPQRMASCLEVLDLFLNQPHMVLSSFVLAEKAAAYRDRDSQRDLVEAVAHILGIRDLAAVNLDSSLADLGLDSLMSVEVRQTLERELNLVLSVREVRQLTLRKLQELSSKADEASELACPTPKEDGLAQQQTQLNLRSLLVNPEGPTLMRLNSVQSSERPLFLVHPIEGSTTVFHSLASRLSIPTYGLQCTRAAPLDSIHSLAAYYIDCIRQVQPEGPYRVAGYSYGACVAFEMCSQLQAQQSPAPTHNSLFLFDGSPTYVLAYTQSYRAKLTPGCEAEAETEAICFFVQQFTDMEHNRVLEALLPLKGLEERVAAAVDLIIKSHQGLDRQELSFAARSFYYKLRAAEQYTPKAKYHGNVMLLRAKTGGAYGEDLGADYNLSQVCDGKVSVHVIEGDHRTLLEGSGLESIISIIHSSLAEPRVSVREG

CHO = CHO cell viability loss, potency – luminescence, cytotoxicity control for TLR9-MyD88 binding inhibitor project, dose response (AID 588339); assay type: functional, cell-based, hamster; conditions: Cricetulus griseus;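 note: CHO cells stably coexpressing TLR9 and MyD88 fusions from primary screen; compound exposure lasted 48 hours before viability readout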
[8] = target: T3, Delta-type opioid receptor; test: HTS Image-Based Screen for Agonists of the DOR Receptor. [Related pubchem assays (depositor defined):AID1777, AID1786, AID2133]; assay type: functional
[9] = viability of HCT116 lacking mutant beta-catenin – cell-based, human colon tumor, dose response (AID 1045); assay type: functional;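 note: HCT116 colon tumor cells with beta catenin knocked out; cells exposed to compound for 60 hours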
[10] = target: T1, Kappa-type opioid receptor; assay type: functional; remark: listed apart in the source
[11] = Vero E6 cell cytotoxicity, dose response, cytotoxicity control for non-replicating M. tuberculosis project, secondary assay (AID 492998); assay type: functional, VeroE6; conditions: Vero C1008
Mu-type opioid receptor = Mu-type opioid receptor (Homo sapiens, UniProt P35372); test: HTS Image-Based Screen for Agonists of the MOR Receptor. [Related pubchem assays (depositor defined):AID1777, AID1785, AID1786, AID2133]; assay type: functional;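 note: imaging of beta-arrestin GFP recruitment into spots after receptor activation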
Chain of Mu-type opioid receptor (P35372 whole entry): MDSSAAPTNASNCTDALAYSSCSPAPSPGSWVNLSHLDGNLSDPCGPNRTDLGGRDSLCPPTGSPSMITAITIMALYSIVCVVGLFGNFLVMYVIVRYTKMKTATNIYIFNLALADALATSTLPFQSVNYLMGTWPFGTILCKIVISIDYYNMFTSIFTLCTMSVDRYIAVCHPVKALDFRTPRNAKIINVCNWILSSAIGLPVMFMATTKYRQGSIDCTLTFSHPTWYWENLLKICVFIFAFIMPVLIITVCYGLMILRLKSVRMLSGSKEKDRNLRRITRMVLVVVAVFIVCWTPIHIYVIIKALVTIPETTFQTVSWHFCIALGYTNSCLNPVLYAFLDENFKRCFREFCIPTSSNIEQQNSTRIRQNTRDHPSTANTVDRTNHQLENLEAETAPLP

[12] = loss of viability in HepG2 cells – cell-based, CellTiter-Glo, cherry-picked, cytotoxicity control for Shn3 inhibitor project, dose response (AID 624134); assay type: functional
[13] = THP-1 cell cytotoxicity, dose response, cytotoxicity control for non-replicating M. tuberculosis project (AID 489025); assay type: functional
Fatty acid synthase [14] = target: T4, Fatty acid synthase; test: inhibition of human FAS-TE enzyme activity – biochemical, endpoint fluorescence intensity, uHTS hits, dose response (AID 624327); assay type: functional;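 note: fluorescence from hydrolysis of an O-methyl fluorescein acyl ester substrate by the enzyme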
[15] = non-specific 3'UTR reporter inhibition in Clone20-Shn3RL – cell-based, Renilla luciferase, cherry-picked, counter-screen for Shn3 inhibitor project, dose response (AID 624133); assay type: functional
Protein RecA = target: T5, Protein RecA (Mycobacterium tuberculosis, UniProt P9WHJ3); test: Fluorescence Cell-Free Homogeneous Dose Retest to Identify Inhibitors of RecA-Intein Splicing Activity. [Related pubchem assays (depositor defined):AID2097, AID2223, AID489010, AID492950]; assay type: functional
T5 sequence (P9WHJ3 whole entry): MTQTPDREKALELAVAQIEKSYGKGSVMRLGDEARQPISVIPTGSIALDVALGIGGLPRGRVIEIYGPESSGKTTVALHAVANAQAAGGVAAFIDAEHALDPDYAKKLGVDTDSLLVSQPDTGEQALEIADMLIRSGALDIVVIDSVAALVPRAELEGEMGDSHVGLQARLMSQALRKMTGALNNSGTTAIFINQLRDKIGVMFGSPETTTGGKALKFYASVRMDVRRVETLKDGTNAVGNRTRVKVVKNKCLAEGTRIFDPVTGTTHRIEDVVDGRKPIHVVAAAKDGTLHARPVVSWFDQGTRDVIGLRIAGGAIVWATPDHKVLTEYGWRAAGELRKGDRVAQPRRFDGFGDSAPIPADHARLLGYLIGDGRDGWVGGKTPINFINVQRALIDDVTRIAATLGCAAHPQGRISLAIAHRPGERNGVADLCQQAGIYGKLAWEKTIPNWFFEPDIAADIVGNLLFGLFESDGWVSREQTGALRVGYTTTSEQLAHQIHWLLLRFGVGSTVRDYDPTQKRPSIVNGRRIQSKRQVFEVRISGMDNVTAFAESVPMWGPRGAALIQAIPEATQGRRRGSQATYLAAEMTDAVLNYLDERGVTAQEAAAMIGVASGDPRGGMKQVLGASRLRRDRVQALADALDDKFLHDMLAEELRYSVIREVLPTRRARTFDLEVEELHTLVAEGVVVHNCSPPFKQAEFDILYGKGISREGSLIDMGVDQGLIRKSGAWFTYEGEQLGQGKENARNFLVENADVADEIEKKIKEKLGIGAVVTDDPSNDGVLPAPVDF

[16] = viability of PTEN-deleted HCT116 cells – cell-based, HCT116 PTEN knockout, dose response (AID 1047); assay type: functional;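 note: HCT116 colon tumor cells with PTEN knocked out; cells exposed to compound for 60 hours before readout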
[17] = viability loss of HMLE_sh_eGFP cells – cell-based, luminescence, counter-screen for HMLE_sh_ECad selective toxicity project, dose response (AID 463074); assay type: functional, Homo sapiens;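 note: HMLE human mammary epithelial cells expressing control shRNA against eGFP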
[18] = Luminescence Cell-Based Dose Retest to Confirm Inhibitors of Cancer Stem Cells. [Related pubchem assays (depositor defined):AID2717, AID2721]; assay type: functional; conditions: Homo sapiens
[19] = Luminescence Cell-Based Secondary HTS screen to identify cytotoxic compounds of NIH3T3 cells. [Related pubchem assays: 1885, 1968 ]; assay type: functional
[20] = T. cruzi infection blockers in NIH3T3 cells – beta-gal luminescence, NIH3T3 host cells, confirmation (AID 2630); assay type: functional, cell-based; conditions: Mus musculus
[21] = Luminescence Cell-Based/Microorganism Confirmation at Dose of Inhibitors of Trypanosoma cruzi Infection. [Related pubchem assays: 1885, 1968 ]; assay type: functional
[22] = NIH3T3 cell viability loss – ATP luminescence, mouse fibroblasts, counter-screen, dose response (AID 2010); assay type: functional, cell-based;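 note: cells exposed to compound for about 90 hours before reading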
[23] = Trypanosoma cruzi growth suppression in host cells – NIH3T3 host cells, beta-gal luminescence, confirmation (AID 2044); assay type: functional, cell-based;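 note: intracellular parasites grown in NIH/3T3 mouse fibroblasts as host cells; luminescent beta-galactosidase reporter signal from transgenic T. cruzi replicating inside host cells; inhibitors lower the luminescence signal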
[24] = target: T6, High affinity choline transporter 1 (Homo sapiens, UniProt Q9GZV3); test: human choline transporter blockers, potency – cell-based, 5-point CRC, membrane potential dye, dose response (AID 504840); assay type: functional
T6 sequence (Q9GZV3 whole entry): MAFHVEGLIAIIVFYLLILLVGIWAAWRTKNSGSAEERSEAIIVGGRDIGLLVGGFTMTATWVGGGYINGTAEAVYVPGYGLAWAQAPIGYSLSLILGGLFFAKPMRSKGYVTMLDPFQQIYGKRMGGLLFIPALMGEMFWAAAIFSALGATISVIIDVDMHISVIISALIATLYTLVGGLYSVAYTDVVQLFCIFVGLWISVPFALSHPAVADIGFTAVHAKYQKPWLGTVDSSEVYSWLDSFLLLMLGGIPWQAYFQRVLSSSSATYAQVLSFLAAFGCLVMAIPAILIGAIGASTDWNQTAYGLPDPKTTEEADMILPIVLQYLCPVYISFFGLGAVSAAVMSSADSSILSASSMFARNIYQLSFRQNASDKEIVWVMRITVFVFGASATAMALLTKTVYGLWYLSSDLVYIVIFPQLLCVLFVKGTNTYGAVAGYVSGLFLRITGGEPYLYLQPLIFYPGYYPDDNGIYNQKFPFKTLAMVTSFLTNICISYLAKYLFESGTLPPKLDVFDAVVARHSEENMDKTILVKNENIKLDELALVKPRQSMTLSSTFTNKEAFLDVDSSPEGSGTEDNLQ

[25] = target: T7, Tyrosine-protein phosphatase non-receptor type 22 (Homo sapiens, UniProt Q9Y2R2); assay type: functional
T7 sequence (Q9Y2R2 whole entry): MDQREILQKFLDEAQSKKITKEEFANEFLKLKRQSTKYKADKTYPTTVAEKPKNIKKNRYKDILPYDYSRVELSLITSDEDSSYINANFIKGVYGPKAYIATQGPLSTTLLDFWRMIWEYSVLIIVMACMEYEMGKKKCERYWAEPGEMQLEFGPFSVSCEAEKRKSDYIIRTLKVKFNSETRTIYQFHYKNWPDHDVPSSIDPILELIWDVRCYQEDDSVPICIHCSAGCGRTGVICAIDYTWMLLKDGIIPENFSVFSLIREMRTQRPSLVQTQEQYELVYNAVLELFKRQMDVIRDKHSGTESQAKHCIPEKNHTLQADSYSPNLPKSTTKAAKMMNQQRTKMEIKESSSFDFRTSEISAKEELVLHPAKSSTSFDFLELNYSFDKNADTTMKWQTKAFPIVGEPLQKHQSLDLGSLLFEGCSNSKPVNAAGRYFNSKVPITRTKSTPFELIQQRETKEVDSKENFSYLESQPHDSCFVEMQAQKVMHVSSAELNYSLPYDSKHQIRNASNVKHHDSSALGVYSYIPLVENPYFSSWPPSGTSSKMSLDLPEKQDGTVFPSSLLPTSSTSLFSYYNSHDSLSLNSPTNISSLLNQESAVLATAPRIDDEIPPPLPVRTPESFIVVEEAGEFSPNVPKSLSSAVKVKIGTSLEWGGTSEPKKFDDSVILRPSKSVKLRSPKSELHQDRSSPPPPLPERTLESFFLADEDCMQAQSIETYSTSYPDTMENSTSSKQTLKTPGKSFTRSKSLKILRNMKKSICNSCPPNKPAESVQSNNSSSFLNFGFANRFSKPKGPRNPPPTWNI

[26] = target: T7, Tyrosine-protein phosphatase non-receptor type 22; assay type: functional; remark: listed apart in the source
[27] = target: Tyrosine-protein phosphatase non-receptor type 7 (Homo sapiens, UniProt P35236); assay type: functional
Chain of Tyrosine-protein phosphatase non-receptor type 7 (P35236 whole entry): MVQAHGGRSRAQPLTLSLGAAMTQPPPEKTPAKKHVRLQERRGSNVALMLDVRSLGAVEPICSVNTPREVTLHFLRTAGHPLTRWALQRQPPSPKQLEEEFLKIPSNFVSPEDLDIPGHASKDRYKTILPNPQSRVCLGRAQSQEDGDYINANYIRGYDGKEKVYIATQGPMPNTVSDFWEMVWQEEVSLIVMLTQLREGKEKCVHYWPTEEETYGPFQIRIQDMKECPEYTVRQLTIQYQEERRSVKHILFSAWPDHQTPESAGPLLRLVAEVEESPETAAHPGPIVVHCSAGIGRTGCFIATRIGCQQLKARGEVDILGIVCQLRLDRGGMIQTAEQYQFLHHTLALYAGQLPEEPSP

Cytochrome P450 2C19 = Cytochrome P450 2C19 (Homo sapiens, UniProt P33261); test: Cytochrome panel assay with activity outcomes. Panel member name: p450-cyp2c19 Compounds with AC50 equal or less than 10 uM are considered active; assay type: functional
Cytochrome P450 1A2 = target: T8, Cytochrome P450 1A2 (Homo sapiens, UniProt P05177);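 note: PubChem cytochrome P450 panel assay, CYP1A2 panel member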
T8 sequence (P05177 whole entry): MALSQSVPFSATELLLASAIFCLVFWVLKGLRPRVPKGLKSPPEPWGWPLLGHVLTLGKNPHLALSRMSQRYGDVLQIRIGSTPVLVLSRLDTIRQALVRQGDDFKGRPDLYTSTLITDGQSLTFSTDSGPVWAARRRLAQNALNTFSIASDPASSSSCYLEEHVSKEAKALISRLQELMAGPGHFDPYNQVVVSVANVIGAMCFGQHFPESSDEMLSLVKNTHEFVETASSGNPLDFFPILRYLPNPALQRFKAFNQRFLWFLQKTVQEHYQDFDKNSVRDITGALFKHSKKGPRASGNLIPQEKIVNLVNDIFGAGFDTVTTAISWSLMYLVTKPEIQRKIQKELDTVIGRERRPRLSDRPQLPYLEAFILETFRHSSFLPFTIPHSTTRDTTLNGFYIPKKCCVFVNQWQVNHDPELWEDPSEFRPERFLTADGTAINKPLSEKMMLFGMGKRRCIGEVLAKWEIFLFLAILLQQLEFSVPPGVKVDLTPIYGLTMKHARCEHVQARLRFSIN

Cytochrome P450 3A4 = Cytochrome P450 3A4 (Homo sapiens, UniProt P08684);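 note: CYP3A4 tested as one member of a cytochrome P450 panel screen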
[28] = target: Potassium voltage-gated channel subfamily KQT member 2 (Rattus norvegicus, UniProt O88943); test: rat KCNQ2 current potentiators – automated patch clamp, KCNQ2-CHO cells, SAR follow-up (AID 493113); assay type: functional

CCCC(=O)OCCNc1cc(Sc2nccn2C)c2nonc2c1[N+](=O)[O-]
4.52: pIC50 [10]
inactive: EC50 (Beta-galactosidase) > 31.5 µM | IC50 [6] > 32 µM | EC50 [8] > 32 µM | EC50 (Mu-type opioid receptor) > 32 µM
active: CC50 [1] 13.3 µM | AC50 [2] 7.22 µM | EC50 (BJ) 2.82 µM | IC50 [3] 5.47 µM | AC50 [4] 1.14 µM | IC50 [5] 136 µM | IC50 (cells) 6.13 µM | IC50 (Beta Lactamase) 8.31 µM | IC50 (Fatty acid synthase [7]) 2.57 µM | IC50 (CHO) 3.21 µM | EC50 [9] 4.63 µM | CC50 [11] 16.6 µM | AC50 [12] 15.7 µM | CC50 [13] 19.2 µM | IC50 (Fatty acid synthase [14]) 5.11 µM | AC50 [15] 12.2 µM | EC50 (Protein RecA) 1.27 µM | EC50 [16] 6.43 µM

O=C(NCCCn1ccnc1)c1cccc(S(=O)(=O)N2CCCCCC2)c1
active: AC50 [17] 27.2 µM | AC50 [18] 18.9 µM

COC(=O)N/N=C/c1ccc([N+](=O)[O-])o1
> 195 µM (not active): EC50 [19]
active: EC50 [20] 0.123 µM | EC50 [21] 0.123 µM | EC50 [23] 0.469 µM
> 60 µM (not active): EC50 [22]

Cc1occc1C(=O)NNS(=O)(=O)c1ccc(Cl)cc1
active: IC50 [24] 13.5 µM
inactive: IC50 [25] > 79.4 µM | IC50 [26] > 79.4 µM | IC50 [27] > 79.4 µM

O=C(O)CNC(=O)c1ccc([As](=O)(O)O)cc1
inactive: AC50 (Cytochrome P450 2C19) | AC50 (Cytochrome P450 1A2) | AC50 (Cytochrome P450 3A4)

CCc1ccc(NC(=O)C2CC3CCC2C3)cc1 (stereo not drawn)
active: EC50 [28] 0.92 µM
